Measured values from PMC3326594 (Journal of Medicinal Chemistry, 2012).

Experiments:
P-gp = P-gp (Homo sapiens, UniProt P08183); conditions: for LE (ligand efficiency): binding free energy from IC50 per heavy atom, 310 K; for LipE (lipophilic efficiency): from pIC50 and clogP (eq 5)
P-glycoprotein (P-gp) = P-glycoprotein (P-gp) (Homo sapiens, UniProt P08183); assay: Inhibition of daunorubicin efflux in multidrug resistant CCRF-CEM vcr 1000 cells; type: cell-based
hERG potassium channel = conditions: hERG blockers from literature; cited from earlier work
[1] = pIC50 calcd, predicted from the clogP/pIC50 correlation line (Figure 2)

P-glycoprotein (P-gp), sequence (P08183 whole entry): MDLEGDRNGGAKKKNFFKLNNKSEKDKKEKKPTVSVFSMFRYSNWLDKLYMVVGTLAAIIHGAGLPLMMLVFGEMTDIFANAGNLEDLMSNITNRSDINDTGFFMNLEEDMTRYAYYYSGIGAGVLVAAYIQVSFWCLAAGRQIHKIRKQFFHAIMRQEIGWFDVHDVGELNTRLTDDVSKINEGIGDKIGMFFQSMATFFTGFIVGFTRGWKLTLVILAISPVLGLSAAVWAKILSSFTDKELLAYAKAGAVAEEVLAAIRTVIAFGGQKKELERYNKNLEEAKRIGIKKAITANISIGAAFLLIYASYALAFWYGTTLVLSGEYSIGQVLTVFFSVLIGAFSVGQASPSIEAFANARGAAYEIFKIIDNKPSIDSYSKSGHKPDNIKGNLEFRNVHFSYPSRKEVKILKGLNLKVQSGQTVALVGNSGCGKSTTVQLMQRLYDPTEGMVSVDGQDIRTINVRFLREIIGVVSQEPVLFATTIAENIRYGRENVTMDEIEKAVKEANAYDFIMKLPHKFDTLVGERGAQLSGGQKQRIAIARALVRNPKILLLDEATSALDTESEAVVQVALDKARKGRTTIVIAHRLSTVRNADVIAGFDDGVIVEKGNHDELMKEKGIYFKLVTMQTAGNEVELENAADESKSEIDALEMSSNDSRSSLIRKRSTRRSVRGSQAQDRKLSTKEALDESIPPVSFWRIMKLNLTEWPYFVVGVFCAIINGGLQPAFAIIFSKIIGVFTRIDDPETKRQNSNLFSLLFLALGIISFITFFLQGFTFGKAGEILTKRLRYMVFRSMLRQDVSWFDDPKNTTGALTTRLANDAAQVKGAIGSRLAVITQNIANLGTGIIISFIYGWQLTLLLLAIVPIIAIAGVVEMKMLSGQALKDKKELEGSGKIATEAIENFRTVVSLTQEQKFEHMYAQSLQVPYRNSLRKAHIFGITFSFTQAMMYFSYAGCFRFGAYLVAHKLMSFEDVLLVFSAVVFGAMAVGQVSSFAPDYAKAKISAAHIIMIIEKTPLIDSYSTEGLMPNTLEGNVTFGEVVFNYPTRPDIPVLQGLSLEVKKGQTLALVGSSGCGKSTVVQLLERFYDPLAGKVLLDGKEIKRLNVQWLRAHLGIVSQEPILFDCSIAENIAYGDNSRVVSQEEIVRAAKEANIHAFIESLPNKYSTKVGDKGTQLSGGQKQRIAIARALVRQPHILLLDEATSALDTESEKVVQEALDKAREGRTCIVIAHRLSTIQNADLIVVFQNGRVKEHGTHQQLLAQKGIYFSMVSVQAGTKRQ
P-gp, sequence (P08183 whole entry): as above

| Compound | LE (ligand efficiency) (P-gp) | LipE (lipophilic efficiency) (P-gp) | also measured |
| --- | --- | --- | --- |
| O=C(c1ccccc1)c1ccccc1OCC(O)CN1CCCCC1 (centres unmarked) [Compound 12] | 0.33 kcal per heavy atom |  |  |
| O=C(c1ccccc1)c1ccccc1OCC(O)CN1CCC(O)(c2ccccc2)CC1 (centres unmarked) [Compound 19] |  |  | IC50 (P-glycoprotein (P-gp); [1]): 1740 nM; factor more active than equilipophilic compound 20 (P-glycoprotein (P-gp); pairwise comparison of IC50, 19 vs 20): ~4 fold |
| CN(CCOc1ccc(NS(C)(=O)=O)cc1)CCc1ccc(NS(C)(=O)=O)cc1 [dofetilide] |  |  | potency values (hERG potassium channel): < 10 nM |
| CCOC/C=C/c1ccc(-c2nc(-c3ccc(NC(C)C)cc3)c(-c3ccc(NC(C)C)cc3)[nH]2)cc1 [ONT093] | 0.29 kcal per heavy atom | 0.19 |  |
| COc1cc2c(cc1OC)CN(CCc1ccc(NC(=O)c3cc(OC)c(OC)cc3NC(=O)c3cnc4ccccc4c3)cc1)CC2 [Tariquidar] | 0.22 kcal per heavy atom | 1.93 |  |
| CC(=O)c1cc(C)ccc1OCC(O)CN1CCN(CC(O)COc2ccccc2C(=O)c2ccccc2)CC1 (centres unmarked) [Compound 24, 1-[2-(3-{4-[3-(2-Benzoyl-phenoxy)-2-hydroxyl-propyl]-piperazine-1-yl}-2-hydroxy-propoxy)-5-methyl-phenyl]-ethanone] | 0.18 kcal per heavy atom |  |  |
| O=C(c1ccccc1)c1ccccc1OCC(O)CN1CCN(CC(O)COc2ccccc2C(=O)c2ccccc2)CC1 (centres unmarked) [Compound 23] | 0.23 kcal per heavy atom |  | IC50 (P-glycoprotein (P-gp); [1]): 794 nM; IC50 (P-glycoprotein (P-gp); pIC50 obs, observed, daunorubicin efflux inhibition): 53.7 nM; more active than equilipophilic compound 21 (P-glycoprotein (P-gp); pairwise comparison of IC50, 23 vs 21): about 1 order of magnitude |
| O=C(CCc1ccccc1)c1ccccc1OCC(O)CN1CCC(O)(c2ccccc2)CC1 (centres unmarked) [GPV062] | 0.30 kcal per heavy atom |  |  |
| CCCNCC(O)COc1ccccc1C(=O)c1ccc(C)cc1 (centres unmarked) [Compound 20] | 0.35 kcal per heavy atom |  |  |
| O=C(CCc1ccccc1)c1ccccc1OCC(O)CN1CCCCC1 (centres unmarked) [GPV005] | 0.33 kcal per heavy atom | 1.84 |  |
